Test results: ChEMBL document CHEMBL1671819, “Interactions of monoamine oxidases with the antiepileptic drug zonisamide: specificity of inhibition and structure of the human monoamine oxidase B complex” (J Med Chem, 2011); call rule not given here
pKi: −log10 of the molar value.

What was measured:
[1] = target: T1, Amine oxidase [flavin-containing] A (Homo sapiens, UniProt P21397); test: Competitive inhibition of human MAOA by spectrophotometry
T1 sequence (P21397 whole entry): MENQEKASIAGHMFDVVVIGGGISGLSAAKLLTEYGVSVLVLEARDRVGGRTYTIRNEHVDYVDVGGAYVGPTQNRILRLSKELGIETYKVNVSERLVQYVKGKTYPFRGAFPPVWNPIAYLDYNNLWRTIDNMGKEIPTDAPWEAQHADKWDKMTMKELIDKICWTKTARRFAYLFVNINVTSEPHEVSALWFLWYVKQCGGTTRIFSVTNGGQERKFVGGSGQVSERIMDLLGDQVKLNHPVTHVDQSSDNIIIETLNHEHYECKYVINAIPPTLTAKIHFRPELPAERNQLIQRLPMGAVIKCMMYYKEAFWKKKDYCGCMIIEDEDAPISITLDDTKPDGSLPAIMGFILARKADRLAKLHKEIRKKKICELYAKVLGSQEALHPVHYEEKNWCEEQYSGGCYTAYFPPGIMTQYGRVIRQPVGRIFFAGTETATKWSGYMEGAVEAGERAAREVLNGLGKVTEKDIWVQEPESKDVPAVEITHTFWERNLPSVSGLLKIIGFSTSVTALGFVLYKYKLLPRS

[2] = target: T2, Amine oxidase [flavin-containing] B (Homo sapiens, UniProt P27338); test: Competitive inhibition of human MAO B by spectrophotometry
T2 sequence (P27338 whole entry): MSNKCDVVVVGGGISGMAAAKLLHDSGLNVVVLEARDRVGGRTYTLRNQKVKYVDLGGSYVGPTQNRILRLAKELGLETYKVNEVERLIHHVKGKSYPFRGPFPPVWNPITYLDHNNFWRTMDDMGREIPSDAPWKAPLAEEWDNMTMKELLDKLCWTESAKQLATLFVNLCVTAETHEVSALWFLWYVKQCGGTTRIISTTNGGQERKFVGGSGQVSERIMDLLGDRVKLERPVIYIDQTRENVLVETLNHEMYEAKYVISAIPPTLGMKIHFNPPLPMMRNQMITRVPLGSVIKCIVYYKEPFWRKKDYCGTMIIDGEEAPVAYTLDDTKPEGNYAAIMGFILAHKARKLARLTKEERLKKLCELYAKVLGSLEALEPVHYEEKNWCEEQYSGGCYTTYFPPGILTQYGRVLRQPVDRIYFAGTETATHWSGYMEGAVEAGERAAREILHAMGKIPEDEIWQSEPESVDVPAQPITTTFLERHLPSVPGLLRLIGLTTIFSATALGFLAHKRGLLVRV

[3] = target: T3, Amine oxidase [flavin-containing] A (Rattus norvegicus, UniProt P21396); test: Competitive inhibition of rat MAOA by spectrophotometry
T3 sequence (P21396 whole entry): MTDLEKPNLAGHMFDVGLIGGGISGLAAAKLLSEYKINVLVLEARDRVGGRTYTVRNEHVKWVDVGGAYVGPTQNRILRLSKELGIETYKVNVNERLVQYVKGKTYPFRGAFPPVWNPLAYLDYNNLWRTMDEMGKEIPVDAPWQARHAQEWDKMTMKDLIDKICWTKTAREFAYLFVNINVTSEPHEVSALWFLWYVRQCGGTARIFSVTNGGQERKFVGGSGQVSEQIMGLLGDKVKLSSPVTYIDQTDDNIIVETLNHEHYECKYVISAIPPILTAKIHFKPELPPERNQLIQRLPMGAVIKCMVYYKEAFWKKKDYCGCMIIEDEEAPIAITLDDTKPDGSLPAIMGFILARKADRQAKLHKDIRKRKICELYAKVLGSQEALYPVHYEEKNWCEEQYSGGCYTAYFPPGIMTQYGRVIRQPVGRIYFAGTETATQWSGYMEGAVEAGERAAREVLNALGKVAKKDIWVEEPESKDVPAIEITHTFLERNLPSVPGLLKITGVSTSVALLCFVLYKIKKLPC

[4] = target: T4, Amine oxidase [flavin-containing] B (Rattus norvegicus, UniProt P19643); test: Competitive inhibition of rat MAO B by spectrophotometry
T4 sequence (P19643 whole entry): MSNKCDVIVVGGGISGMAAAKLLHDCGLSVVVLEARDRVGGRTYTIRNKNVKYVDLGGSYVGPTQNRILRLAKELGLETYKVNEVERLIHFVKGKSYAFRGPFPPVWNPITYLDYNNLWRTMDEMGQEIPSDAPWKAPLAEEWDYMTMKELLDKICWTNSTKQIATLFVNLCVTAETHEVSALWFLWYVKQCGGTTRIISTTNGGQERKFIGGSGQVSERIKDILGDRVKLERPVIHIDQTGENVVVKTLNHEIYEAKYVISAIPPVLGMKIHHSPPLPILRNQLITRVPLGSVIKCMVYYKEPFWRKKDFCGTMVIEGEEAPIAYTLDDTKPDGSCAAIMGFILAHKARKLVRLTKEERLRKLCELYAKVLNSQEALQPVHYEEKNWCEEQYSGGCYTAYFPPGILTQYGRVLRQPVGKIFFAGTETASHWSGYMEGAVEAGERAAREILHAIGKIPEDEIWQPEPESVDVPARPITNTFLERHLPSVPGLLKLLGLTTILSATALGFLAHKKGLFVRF

[5] = test system: Serum; test: Drug level in parkinson's disease patient serum at 25 mg/day; assay type: ADME, cell-free; settings: human, read-out: Drug uptake
[6] = target: T5, Amine oxidase [flavin-containing] (Danio rerio, UniProt Q6NSN2); test: Competitive inhibition of zebrafish MAO by spectrophotometry
T5 sequence (Q6NSN2 whole entry): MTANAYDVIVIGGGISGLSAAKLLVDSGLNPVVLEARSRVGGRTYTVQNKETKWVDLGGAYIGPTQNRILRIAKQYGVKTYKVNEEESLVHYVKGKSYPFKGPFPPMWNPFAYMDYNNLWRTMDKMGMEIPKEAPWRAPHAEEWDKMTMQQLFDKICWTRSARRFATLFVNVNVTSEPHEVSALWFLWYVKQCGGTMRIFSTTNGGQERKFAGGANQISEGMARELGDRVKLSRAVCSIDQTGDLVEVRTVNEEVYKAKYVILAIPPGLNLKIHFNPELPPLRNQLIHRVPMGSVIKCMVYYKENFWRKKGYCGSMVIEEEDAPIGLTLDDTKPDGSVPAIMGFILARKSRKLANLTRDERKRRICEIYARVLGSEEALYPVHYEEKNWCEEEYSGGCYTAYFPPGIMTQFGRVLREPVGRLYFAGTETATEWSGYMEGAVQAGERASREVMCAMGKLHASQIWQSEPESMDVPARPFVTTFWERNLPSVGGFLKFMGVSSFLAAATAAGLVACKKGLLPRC

- inhibition (INH) [1]: Not Active
- pKi [2]: 5.51
- inhibition (INH) [3]: Not Active
- pKi [4]: 5.54
- concentration [5]: 600 nM
- pKi [6]: 4.51
SMILES: NS(=O)(=O)Cc1noc2ccccc12 [ZONISAMIDE]
